Target: Neuromedin-K/NK2 receptor (tachykinin receptor 2), Rattus norvegicus
Experiment: Tested in vitro to inhibit the binding of [125I]NKA to its receptor in rat duodenum membrane

Ki: 0.51 nM
SMILES: CC(=O)NC1(c2ccccc2)CCN(CC[C@H](CN(C)C(=O)c2ccccc2)c2ccc(Cl)c(Cl)c2)CC1 [N-[(R)-4-(4-Acetylamino-4-phenyl-piperidin-1-yl)-2-(3,4-dichloro-phenyl)-butyl]-N-methyl-benzamide]

— BindingDB's records for doi:10.1016/S0960-894X(01)80901-X (1993)
